Assay results reported in US20140086890A1, “COMPOSITIONS AND METHODS FOR TREATING HYPERPROLIFERATIVE DISORDERS” (priority 2004, published 2014).

Assays:
HDAC = settings: cited from earlier work
[1] = while retaining graft-versus-tumor effects; cited from earlier work
RENCA tumor cells = test: NK cell susceptibility assay of pre-sensitized RENCA tumor cells; type: cell-based, murine; settings: for NK cell susceptibility of RENCA (FIG. 8): 14 hours, 10 nM Velcade or 25 ng/ml Depsipeptide, autologous Balb/c NK cells, 4 hour assay; for susceptibility of RENCA tumor cells to NK cell mediated lysis (FIG. 7): pretreated 40 hours, Depsipeptide 25 ng/ml or Velcade 10 nM, NK cells from B10.d2 mouse
Protocol: (§1) Thereafter, the tumor cells were tested for NK cell susceptibility in a standard cytotoxicity assay. NK cells were purified from splenocytes from a B 10.d2 mouse by negative magnetic bead depletion of T cells, B cells, monocytes and granulocytes. NK cell purity was evaluated by DX5 and CD3 staining by flow cytometry. Purity of NK cells was always between 90-100%.
Cells were thereafter labeled with ^51Cr for 1 hour and tested for susceptibility to NK cell mediated lysis in a standard 4 hour assay. Murine autologous Balb/c NK cells tested against untreated (squares), Velcade (circles) or Depsipeptide (triangles) treated RENCA cell lines (Balb/c in origin).

[2] = system: RCC cell lines (JOHW, SAUJ, STAR, RENCA); test: apoptosis by Annexin-V and 7-AAD staining; type: cell-based, human and murine; settings: Depsipeptide 25 ng/ml or Velcade 10 nM, 6-40 hours
Protocol: (§2) Level of apoptosis was evaluated by Annexin-V and 7-AAD staining (upper left chart). Expression of MHC class I was evaluated by flow cytometry by HLA-ABC for human RCC and H-2Dd/Kd for murine RCC (lower left chart). […] Cells were labeled with ^3H thymidine for analysis of proliferation (upper right chart).

[3] = system: human renal cell carcinoma (RCC) cell lines JOHW, SAUJ, STAR; test: NK cell susceptibility assay of pre-sensitized human RCC cell lines; type: cell-based; settings: for autologous NK cell susceptibility of human RCC SAUJ or STAR (FIG. 11): 24 hours, 25 ng/ml Depsipeptide or 10 nM Velcade; for allogeneic NK cell susceptibility of human RCC (FIG. 9) / autologous NK cell susceptibility of human RCC (FIG. 10): JOHW, 10 nM Velcade or 25 ng/ml Depsipeptide, 40 hours, 4 hour assay
Protocol: Cells were thereafter labeled with ^51Cr for 1 hour and tested for susceptibility to allogeneic NK cell mediated lysis in a standard 4 hour assay.
Cells were thereafter labeled with ^51Cr for 1 hour and tested for susceptibility to autologous NK cell mediated lysis in a standard 4 hour assay.
as §1, with “assay. Autologous” for “assay.”, “peripheral blood” for “splenocytes from a B 10.d2 mouse”, “CD56” for “DX5”

human and murine RCC = test: 3H thymidine proliferation; type: cell-based; settings: various concentrations, 72 hours
Protocol: as §2

MHC class I = MHC class I expression by flow cytometry; type: cell-based, human and murine; settings: Depsipeptide 25 ng/ml or Velcade 10 nM, 6-40 hours
Protocol: as §2

MIC-A/B [4] = settings: cited from earlier work
[5] = system: human RCC cell lines (JOHW, PORJC, SAUJ and STAR); type: cell-based
Protocol: (§3) Cells were then plated in a 96-well plate at 4,000 cell/well. Recombinant TRAIL [75-300 ng/ml] or recombinant Fas-ligand [12.5-100 ng/ml] was added to the cells and supernatant was harvested after 16 hours incubation. The level of lysis by TRAIL and Fas-ligand were calculated based on spontaneous and maximum ^51Cr release.

MIC-A/B [6] = test: MIC-A/B expression by flow cytometry; type: cell-based, human; settings: Depsipeptide 25 ng/ml or Velcade 10 nM, 6-40 hours
tumors = settings: mouse, in vivo; cited from earlier work
[7] = system: human RCC cell lines (JOHW, PORJC, SAUJ and STAR); type: cell-based; remark: listed apart in the source
Protocol: as §3

neoplastic cells = settings: by reducing levels of c-FLIP; cited from earlier work

SMILES | concentrations at which HDAC activity is inhibited (HDAC) | acute graft-versus-host disease [1] | NK cell susceptibility of RENCA (FIG. 8) (RENCA tumor cells) | susceptibility of RENCA tumor cells to NK cell mediated lysis (FIG. 7) (RENCA tumor cells) | viability (apoptosis) of RCC cell lines (FIG. 15) [2] | autologous NK cell susceptibility of human RCC SAUJ or STAR (FIG. 11) [3] | allogeneic NK cell susceptibility of human RCC (FIG. 9) [3] | autologous NK cell susceptibility of human RCC (FIG. 10) [3] | proliferation of RCC cell lines (FIG. 15) (human and murine RCC) | MHC Class I expression of RCC cell lines (FIG. 15) (MHC class I) | MIC-A/B upon treatment (MIC-A/B [4]) | cell lysis of presensitized RCC cells by Fas ligand (FIG. 14) [5] | MIC-A/B expression of human RCC (FIG. 15) (MIC-A/B [6]) | anti-tumor effects: cell growth and formation of tumors in mice models (tumors) | cell lysis of presensitized RCC cells by TRAIL (FIG. 13) [7] | sensitization of neoplastic cells to TRAIL-mediated apoptosis (neoplastic cells)
C/C=C1\NC(=O)[C@H]2CSSCC/C=C/[C@H](CC(=O)N[C@H](C(C)C)C(=O)N2)OC(=O)[C@H](C(C)C)NC1=O [FR901228] | micromolar concentrations | – | – | – | – | – | – | – | – | – | – | – | – | – | – | –
CC(C)C[C@H](NC(=O)[C@H](Cc1ccccc1)NC(=O)c1cnccn1)B(O)O [Velcade] | – | inhibits | enhanced NK cell susceptibility | more susceptible | no differences | enhanced autologous NK cell susceptibility | enhanced allogeneic NK cell susceptibility | enhanced autologous NK cell susceptibility | no differences | no differences | – | – | – | – | – | –
C/C=C1\NC(=O)[C@H]2CSSCC/C=C/[C@H](CC(=O)N[C@H](C(C)C)C(=O)N2)OC(=O)[C@H](C(C)C)NC1=O [Depsipeptide] | – | – | enhanced NK cell susceptibility | more susceptible | no differences | enhanced autologous NK cell susceptibility | enhanced allogeneic NK cell susceptibility | enhanced autologous NK cell susceptibility | no differences | no differences | induction | Increased cell lysis | no differences | anti-tumor effects | Increased cell lysis | –
CC(C)C[C@H](NC(=O)[C@H](Cc1ccccc1)NC(=O)c1cnccn1)B(O)O [PS-341] | – | – | – | – | – | – | – | – | – | – | – | – | – | – | – | sensitizes
